Test results as given in patent US20250163104A1, “MACROCYCLIC IMMUNOMODULATORS” (priority 2021, published 2025).
pIC50: −log10 of the molar value. Where a SMILES comes first, the peptide text is derived from it. Bridges are numbered along the chain shown (N, C = ends). [ ]: non-standard residue; d: D form. The star is where a group is joined. ξ: configuration not given here. Phe(3-CF3) = N[C@@H](Cc1cccc(C(F)(F)F)c1)C(=O)O; Ala(morpholin-4-yl) = N[C@@H](CN1CCOCC1)C(=O)O; Phe(4-COOH) = N[C@@H](Cc1ccc(C(=O)O)cc1)C(=O)O; Bip = N[C@@H](Cc1ccc(-c2ccccc2)cc1)C(=O)O; Phe(4-NH2) = Nc1ccc(C[C@H](N)C(=O)O)cc1; Phe(3-Me) = Cc1cccc(C[C@H](N)C(=O)O)c1; Val(3-OH) = CC(C)(O)[C@H](N)C(=O)O; 4Pal = N[C@@H](Cc1ccncc1)C(=O)O; 3Thi = N[C@@H](Cc1ccsc1)C(=O)O; Cha = N[C@@H](CC1CCCCC1)C(=O)O; Cit = NC(=O)NCCC[C@H](N)C(=O)O; Thr(3ξ) = CC(O)[C@H](N)C(=O)O; Carboxymethyl = O=C(O)C*; Nle = CCCC[C@H](N)C(=O)O; Orn = NCCC[C@H](N)C(=O)O; Pra = C#CC[C@H](N)C(=O)O; Dab = NCC[C@H](N)C(=O)O; Dap = NC[C@H](N)C(=O)O

Each molecule was assayed against T1, human PD-1 / PD-L1-Ig binding on Jurkat cell line over-expressing human PD-1 (Jurkat-PD-1) (Homo sapiens, UniProt Q15116) (assay: Jurkat-PD-1 Cell Binding High-Content Screening Assay (CBA)). Conditions: Jurkat-PD-1 cells, PE-labeled PD-L1-Ig 20 nM final; read-out: Jurkat HPD1_PDL1 IC50.
T1 construct: expressed in transfected cells; host or cells: Jurkat
T1 sequence (Q15116 25-288): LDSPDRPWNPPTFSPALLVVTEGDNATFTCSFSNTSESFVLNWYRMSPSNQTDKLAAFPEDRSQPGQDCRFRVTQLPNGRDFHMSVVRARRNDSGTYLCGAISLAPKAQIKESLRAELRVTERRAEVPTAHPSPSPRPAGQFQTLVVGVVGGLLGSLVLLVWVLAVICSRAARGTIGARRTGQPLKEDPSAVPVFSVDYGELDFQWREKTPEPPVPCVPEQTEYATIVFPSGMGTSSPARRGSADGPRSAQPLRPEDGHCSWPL
Type: cell-based
Summary of the method: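 Jurkat cells over-expressing human PD-1, in DMEM/10% FCS, pre-incubated with compound 2 h at 37° C. PE-labeled human PD-L1-Ig (20 nM final) added for 1 h; cells fixed in paraformaldehyde with Hoechst 33342 nuclear stain, washed, and bound fluorescence quantified by high-content imaging.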
Molecule `CC(C)C[C@@H]1NC(=O)[C@H](CCCCN)NC(=O)[C@@H](CC(C)C)NC(=O)[C@H](CCCN)NC(=O)[C@H](CCCNC(=N)N)NC(=O)[C@H](Cc2ccc(-c3ccccc3)cc2)NC(=O)[C@H](C(C)C)NC(=O)[C@H](Cc2c[nH]c3ccccc23)NC(=O)[C@H](CC(=O)O)NC(=O)[C@H](Cc2ccc(O)cc2)NC(=O)[C@H](CC(N)=O)NC(=O)CSC[C@@H](C(=O)N[C@@H](C)C(N)=O)NC(=O)[C@H]([C@@H](C)O)NC(=O)[C@H](C(C)C)NC1=O` [Compound 1030] ({CH2CO}-NYDWV[Bip]R[Orn][dL]KLVTCA-NH2; thioether N-14) has a pIC50 of 7.97. Work on `CC(C)C[C@H]1NC(=O)[C@H](CCCN)NC(=O)[C@H](Cc2ccc(C(=O)O)cc2)NC(=O)[C@H](Cc2ccc(-c3ccccc3)cc2)NC(=O)[C@H](Cc2ccc(N)cc2)NC(=O)[C@H](Cc2cccc(C(F)(F)F)c2)NC(=O)[C@H](CC(=O)O)NC(=O)[C@H](Cc2ccc(C(=O)O)cc2)NC(=O)[C@H](CN2CCOCC2)NC(=O)CSC[C@@H](C(=O)N[C@@H](CCN)C(N)=O)NC(=O)[C@H](CCC(=O)O)NC(=O)[C@H](C(C)C)NC(=O)[C@H](CC2CCCCC2)NC(=O)[C@H](CCN)NC1=O` [Example 2743] ({CH2CO}-[Ala(morpholin-4-yl)][Phe(4-COOH)]D[Phe(3-CF3)][Phe(4-NH2)][Bip][Phe(4-COOH)][Orn][dL][Dab][Cha]VEC[Dab]-NH2; thioether N-14) yielded a pIC50 of 8.66. `CC(C)[C@@H]1NC(=O)[C@H](Cc2c[nH]c3ccccc23)NC(=O)[C@H](CC(=O)O)NC(=O)[C@H](Cc2ccncc2)NC(=O)[C@H](CN)NC(=O)CSC[C@@H](C(=O)NCC(N)=O)NC(=O)[C@H](C(C)O)NC(=O)[C@H](C(C)C)NC(=O)[C@H](CC2CCCCC2)NC(=O)[C@H](CCN)NC(=O)[C@@H](C)NC(=O)[C@H](CCCN)NC(=O)[C@H](CCN)NC(=O)[C@H](Cc2ccc(-c3ccccc3)cc2)NC1=O` (stereo partly drawn) [Compound 2543] ({CH2CO}-[Dap][4Pal]DWV[Bip][Dab][Orn][dA][Dab][Cha]V[Thr(3ξ)]CG-NH2; thioether N-14) gave a pIC50 of 6.63. `CC(C)C[C@H]1NC(=O)[C@H](CCCN)NC(=O)[C@H](C(C)C)NC(=O)[C@H](Cc2ccc(-c3ccccc3)cc2)NC(=O)[C@H](C(C)C)NC(=O)[C@H](Cc2ccc(O)cc2)NC(=O)[C@H](CC(=O)O)NC(=O)[C@H](Cc2ccc(OCC(=O)O)cc2)NC(=O)[C@H](CN)NC(=O)CSC[C@@H](C(=O)N[C@@H](CCN)C(N)=O)NC(=O)[C@H](CCCCN)NC(=O)[C@H](C(C)C)NC(=O)[C@H](CC2CCCCC2)NC(=O)[C@H](CCN)NC1=O` [Compound 2033] ({CH2CO}-[Dap]Y(Carboxymethyl)DYV[Bip]V[Orn][dL][Dab][Cha]VKC[Dab]-NH2; thioether N-14) was tested, and the pIC50 was 7.74. Work on `CC(C)C[C@H]1NC(=O)[C@H](CCCN)NC(=O)[C@H](CCC(=O)O)NC(=O)[C@H](Cc2ccc(-c3ccccc3)cc2)NC(=O)[C@H](C(C)C)NC(=O)[C@H](Cc2c[nH]c3ccccc23)NC(=O)[C@H](CC(=O)O)NC(=O)[C@H](Cc2ccc(OCC(=O)O)cc2)NC(=O)[C@H](Cc2ccc(OCC(=O)O)cc2)NC(=O)CSC[C@@H](C(=O)N[C@@H](C)C(N)=O)NC(=O)[C@H]([C@@H](C)O)NC(=O)[C@H](C(C)C)NC(=O)[C@H](Cc2ccc(O)cc2)NC(=O)[C@H](CCN)NC1=O` [Compound 1688] ({CH2CO}-Y(Carboxymethyl)Y(Carboxymethyl)DWV[Bip]E[Orn][dL][Dab]YVTCA-NH2; thioether N-14) yielded a pIC50 of 6.20. With `Cc1cccc(C[C@@H]2NC(=O)[C@H](CC(=O)O)NC(=O)[C@H](Cc3ccc(C(=O)O)cc3)NC(=O)[C@H](Cc3ccsc3)NC(=O)CSC[C@@H](C(=O)N[C@@H](CCN)C(N)=O)NC(=O)[C@H](CO)NC(=O)[C@H](C(C)(C)O)NC(=O)[C@H](CC3CCCCC3)NC(=O)[C@H](CCN)NC(=O)[C@@H](CC(C)C)NC(=O)[C@H](CCCN)NC(=O)[C@H](Cc3ccc(C(=O)O)cc3)NC(=O)[C@H](Cc3ccc(-c4ccccc4)cc3)NC(=O)[C@H](Cc3ccc(OCC(=O)O)cc3)NC2=O)c1` [Compound 2660] ({CH2CO}-[3Thi][Phe(4-COOH)]D[Phe(3-Me)]Y(Carboxymethyl)[Bip][Phe(4-COOH)][Orn][dL][Dab][Cha][Val(3-OH)]SC[Dab]-NH2; thioether N-14) the pIC50 was 8.41. With `CC(C)C[C@H]1NC(=O)[C@H](CCCN)NC(=O)[C@H](CCCNC(N)=O)NC(=O)[C@H](Cc2ccc(-c3ccccc3)cc2)NC(=O)[C@H](C(C)C)NC(=O)[C@H](Cc2c[nH]c3ccccc23)NC(=O)[C@H](CC(=O)O)NC(=O)[C@H](Cc2cccc3ccccc23)NC(=O)[C@H](CN)NC(=O)CSC[C@@H](C(=O)N[C@@H](C)C(N)=O)NC(=O)[C@H]([C@@H](C)O)NC(=O)[C@H](C(C)C)NC(=O)[C@H](CC2CCCCC2)NC(=O)[C@H](CCN)NC1=O` [Compound 2115] the pIC50 was 7.27. For `CCC(C)[C@@H]1NC(=O)[C@H](Cc2ccc(-c3ccccc3)cc2)NC(=O)[C@H](C(C)C)NC(=O)[C@H](Cc2cccc(C)c2)NC(=O)[C@H](CC(=O)O)NC(=O)[C@H](Cc2cccnc2)NC(=O)[C@H](CN)NC(=O)CSC[C@@H](C(=O)N[C@@H](C)C(N)=O)NC(=O)[C@H]([C@@H](C)O)NC(=O)[C@H](C(C)C)NC(=O)[C@H](CC2CCCCC2)NC(=O)[C@H](CCN)NC(=O)[C@@H](CC(C)C)NC(=O)[C@H](CCCN)NC1=O` (stereo partly drawn) [Compound 2235], the pIC50 was 8.04. With `CC(C)C[C@H]1NC(=O)[C@H](CCCN)NC(=O)[C@H](CCC(=O)O)NC(=O)[C@H](Cc2ccc(-c3ccccc3)cc2)NC(=O)[C@H](C(C)C)NC(=O)[C@H](Cc2c[nH]c3ccccc23)NC(=O)[C@H](CC(=O)O)NC(=O)[C@H](Cc2ccc(-c3cccc(C(=O)O)c3)cc2)NC(=O)[C@H](CN)NC(=O)CSC[C@@H](C(=O)N[C@@H](C)C(N)=O)NC(=O)[C@H]([C@@H](C)O)NC(=O)[C@H](C(C)C)NC(=O)[C@H](CC2CCCCC2)NC(=O)[C@H](CCN)NC1=O` [Compound 2162] the pIC50 was 8.11. Work on `CC(C)C[C@@H]1NC(=O)[C@H](Cc2c[nH]c3ccccc23)NC(=O)[C@H](CC(=O)O)NC(=O)[C@H](Cc2ccc(OCC(=O)O)cc2)NC(=O)[C@H](CN)NC(=O)CSC[C@@H](C(=O)N[C@@H](C)C(N)=O)NC(=O)[C@H]([C@@H](C)O)NC(=O)[C@H](C(C)C)NC(=O)[C@H](CC(C)C)NC(=O)[C@H](CCN)NC(=O)[C@@H](CC(C)C)NC(=O)[C@H](CCCN)NC(=O)[C@H](CCCNC(N)=O)NC(=O)[C@H](Cc2ccc(-c3ccccc3)cc2)NC1=O` [Compound 1304] ({CH2CO}-[Dap]Y(Carboxymethyl)DWL[Bip][Cit][Orn][dL][Dab]LVTCA-NH2; thioether N-14) yielded a pIC50 of 7.58. `CCCC[C@H]1NC(=O)[C@H](CCCN)NC(=O)[C@H](C(C)C)NC(=O)[C@H](Cc2ccc(-c3ccccc3)cc2)NC(=O)[C@H](C(C)C)NC(=O)[C@H](Cc2c[nH]c3ccccc23)NC(=O)[C@H](CC(=O)O)NC(=O)[C@H](Cc2ccncc2)NC(=O)[C@H](Cc2ccc(OCC(=O)O)cc2)NC(=O)CSC[C@@H](C(=O)N[C@@H](C)C(N)=O)NC(=O)[C@H]([C@@H](C)O)NC(=O)[C@H](C(C)C)NC(=O)[C@H](CC2CCCCC2)NC(=O)[C@H](CCN)NC1=O` [Compound 1694] gave a pIC50 of 7.46. `CC[C@H](C)[C@@H]1NC(=O)[C@H](Cc2ccc(-c3ccccc3)cc2)NC(=O)[C@H](C(C)C)NC(=O)[C@H](Cc2c[nH]c3ccccc23)NC(=O)[C@H](CC(=O)O)NC(=O)[C@H](Cc2ccc(O)cc2)NC(=O)[C@H](CC(N)=O)NC(=O)CSC[C@@H](C(=O)N[C@@H](C)C(N)=O)NC(=O)[C@H](CO)NC(=O)[C@H](C(C)C)NC(=O)[C@H](CC(C)C)NC(=O)[C@H](CCN)NC(=O)[C@@H](CC(C)C)NC(=O)[C@H](CCCN)NC1=O` [Compound 1118] ({CH2CO}-NYDWV[Bip]I[Orn][dL][Dab]LVSCA-NH2; thioether N-14) gave a pIC50 of 7.64. With `Cc1cccc(C[C@@H]2NC(=O)[C@H](CC(=O)O)NC(=O)[C@H](Cc3ccc(C(=O)O)cc3)NC(=O)[C@H](Cc3ccncc3)NC(=O)CSC[C@@H](C(=O)N[C@@H](C)C(N)=O)NC(=O)[C@H]([C@@H](C)O)NC(=O)[C@H](C(C)C)NC(=O)[C@H](CC3CCCCC3)NC(=O)[C@H](CCN)NC(=O)[C@@H](CC(C)C)NC(=O)[C@H](CCCN)NC(=O)[C@H](CC3CCCCC3)NC(=O)[C@H](Cc3ccc(-c4ccccc4)cc3)NC(=O)[C@H](C(C)C)NC2=O)c1` [Compound 1621] the pIC50 was 7.44. `CCCC[C@@H]1NC(=O)[C@H](CCN)NC(=O)[C@@H](CC(C)C)NC(=O)[C@H](CCCN)NC(=O)[C@H](C(C)C)NC(=O)[C@H](Cc2ccc(-c3ccccc3)cc2)NC(=O)[C@H](CC(C)C)NC(=O)[C@H](Cc2c[nH]c3ccccc23)NC(=O)[C@H](CC(=O)O)NC(=O)[C@H](Cc2ccc(C(=O)O)cc2)NC(=O)[C@H](Cc2ccc(OCC(=O)O)cc2)NC(=O)CSC[C@@H](C(=O)NCC(N)=O)NC(=O)[C@H](CO)NC(=O)[C@H](C(C)C)NC1=O` [Compound 1410] ({CH2CO}-Y(Carboxymethyl)[Phe(4-COOH)]DWL[Bip]V[Orn][dL][Dab][Nle]VSCG-NH2; thioether N-14) gave a pIC50 of 8.14. In the case of `C#CC[C@H](NC(=O)[C@@H](C)NC(=O)[C@@H]1CSCC(=O)N[C@@H](Cc2c[nH]cn2)C(=O)N[C@@H](Cc2ccc(OCC(=O)O)cc2)C(=O)N[C@@H](CC(=O)O)C(=O)N[C@@H](Cc2c[nH]c3ccccc23)C(=O)N[C@@H](C(C)C)C(=O)N[C@@H](Cc2ccc(-c3ccccc3)cc2)C(=O)N[C@@H](C(C)C)C(=O)N[C@@H](CCCN)C(=O)N[C@H](CC(C)C)C(=O)N[C@@H](CCN)C(=O)N[C@@H](CC2CCCCC2)C(=O)N[C@@H](C(C)(C)O)C(=O)N[C@@H](CO)C(=O)N1)C(N)=O` [Compound 2326] ({CH2CO}-HY(Carboxymethyl)DWV[Bip]V[Orn][dL][Dab][Cha][Val(3-OH)]SC[dA][Pra]-NH2; thioether N-14), the pIC50 was 8.11.
